Assays:
Format in all cases: physicochemical
[1] = storage stability test of an equivalent mixture with L-arginine (degree of whiteness, coloration); details: for appearance (color) after storage / decrease ratio in degree of whiteness: 40° C., 2 weeks; for appearance (color) after storage / decrease ratio in degree of whiteness / degree of whiteness after the test: 75% RH, airtight; for degree of whiteness after the test: after 2 weeks at 40° C.; for degree of whiteness at the onset: at onset/initiation of the storage test
Text: In a β-glucan derivative according to the present invention, a non-reducing end needs not to be bound to all reducing ends. A non-reducing end may be bound to reducing ends to the extent that an active ingredient such as a medicament or the like having an amino group is stably present. The conversion rate of a reducing end of the β-glucan into a non-reducing end is preferably 0.1 mol % or more. Whether an active ingredient is present in a stable state can be readily checked by an observation based on degree of coloration in a storage stability test in a condition that is performed by mixing an active ingredient and a β-glucan derivative in equivalent amounts and stored the mixture at 40° C. under 75%. Since it has a reducing end, β-glucan is known to initiate the Maillard reaction with an active ingredient having a terminal amino group to form an amino-carbonyl bond and produce color. However, a β-glucan derivative according to the present invention has an advantageous effect in that since the reducing end is inactivated by a non-reducing sugar, no coloring reaction takes place. The effect of the present invention is particularly effective for an active ingredient having a primary amine.
Whether fructose was bound was confirmed based on an increase of a peak in a mass spectrum and a storage stability test of an equivalent mixture of the obtained transglucosylated product and L-arginine contained at 40° C. and 75% RH, airtight for 2 weeks. A decrease ratio in degree of whiteness was 2% (it was 99% at the onset and 97% after the test).

[2] = hardness of molded cylindrical product (Schleuniger hardness tester type 6D)
Experimental: (§1) The hardness of the molded cylindrical product thus obtained was measured by a Schleuniger hardness tester type 6D (Trademark, manufactured by FREUND Corporation). More specifically, a load pressure was applied to the molded cylindrical product or a tablet in the direction of the diameter to break it. The weight at the moment was measured. The hardness was represented by an average value of 10 samples. Furthermore, the disintegration time of the molded cylindrical product was determined in accordance with a general test method, a disintegration test method for tablets specified in the Japanese Pharmacopeia, 14th revision, by use of a disintegration tester (Toyama Sangyo Co., Ltd., Trade name: NT-40HS type with a disk), at 37° C. in pure water. The disintegration time was represented by an average of 6 tablets

[3] = disintegration time of molded cylindrical product (Japanese Pharmacopeia disintegration test); details: 37° C., pure water
Experimental: as §1

For “transglucosylated cellobiose [Comparative Example 2]”, which “appearance (color) after storage” value [1] is on record?
The value was “White color in appearance was maintained”.

What about the “decrease ratio in degree of whiteness” value [1] of the same substance?
The value was 3%.

And the “degree of whiteness after the test” value [1]?
Its value is 96%.

And the “degree of whiteness at the onset” value [1]?
The value was 99%.

What about the “hardness of the molded cylindrical product” value ([2]; compression pressure 35 kN) of the same substance?
The value was 80 N.

And the “disintegration time of the molded cylindrical product” value ([3]; compression pressure 35 kN)?
Its value is 300 s.

Which “appearance (color) after storage” value [1] does the source give for “transglucosylated cellotriose [Example 1]” here?
Its value is “White color in appearance was maintained”.

And the “decrease ratio in degree of whiteness” value [1]?
Its value is 2%.

And the “degree of whiteness after the test” value [1]?
Its value is 97%.

And the “degree of whiteness at the onset” value [1]?
The value was 99%.

And the “hardness of the molded cylindrical product” value ([2]; compressed at 25 kN, φ8 mm, average of 10 samples)?
Its value is 70 N.

What about the “disintegration time of the molded cylindrical product” value ([3]; compressed at 25 kN, with disk, average of 6) of the same substance?
Its value is 58 s.

Reference: patent US7795240B1, “Nonreducing beta-glucan derivative” (Asahi Kasei Chemicals Corporation, priority 2003, dated 2010)
